Laboratory results: ChEMBL document CHEMBL1150530, “Thromboxane receptor antagonism combined with thromboxane synthase inhibition. 6. 4-substituted 3-pyridinylalkanoic acids” (Bioorg Med Chem Lett, 1992)

Tests used:
Thromboxane-A synthase [1] = biological target: T1, Thromboxane-A synthase (Homo sapiens, UniProt P24557); assay: Inhibitory concentration against thromboxane synthase enzyme
T1 sequence (P24557 whole entry): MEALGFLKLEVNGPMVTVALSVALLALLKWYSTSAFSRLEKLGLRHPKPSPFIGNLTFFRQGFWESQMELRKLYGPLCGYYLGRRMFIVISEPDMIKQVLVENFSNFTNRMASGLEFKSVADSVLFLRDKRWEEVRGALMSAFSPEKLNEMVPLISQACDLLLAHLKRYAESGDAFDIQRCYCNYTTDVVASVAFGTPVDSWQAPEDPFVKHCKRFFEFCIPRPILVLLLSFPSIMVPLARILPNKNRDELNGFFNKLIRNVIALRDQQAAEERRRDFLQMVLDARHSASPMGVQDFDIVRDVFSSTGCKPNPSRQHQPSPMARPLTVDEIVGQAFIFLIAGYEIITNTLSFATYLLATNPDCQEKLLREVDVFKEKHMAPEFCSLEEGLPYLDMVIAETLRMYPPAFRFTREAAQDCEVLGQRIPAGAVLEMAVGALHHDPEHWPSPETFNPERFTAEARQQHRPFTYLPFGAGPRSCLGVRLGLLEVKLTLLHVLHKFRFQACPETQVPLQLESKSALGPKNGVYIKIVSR

Homo sapiens [2] = species: Homo sapiens; assay: Inhibitory concentration against U 46619 induced aggregation of human platelet rich plasma(PRP); assay type: functional
Homo sapiens [3] = species: Homo sapiens; assay: Inhibitory concentration against U 46619 induced aggregation of human washed platelets(WP); assay type: functional
Thromboxane-A synthase [4] = biological target: T1, Thromboxane-A synthase; assay: Inhibitory concentration against thromboxane synthase enzyme; IA=Inactive
Homo sapiens [5] = species: Homo sapiens; assay: Inhibitory concentration against U 46619 induced aggregation of human washed platelets(WP); IA=Inactive; assay type: functional
Homo sapiens [6] = species: Homo sapiens; assay: Inhibitory concentration against U 46619 induced aggregation of human platelet rich plasma(PRP); IA=Inactive; assay type: functional

IC50 (Thromboxane-A synthase [1]) [nM] | IC50 (Homo sapiens [2]) [nM] | IC50 (Homo sapiens [3]) [nM] | IC50 (Thromboxane-A synthase [4]) | IC50 (Homo sapiens [5]) | IC50 (Homo sapiens [6]) | SMILES
43 | 610 | 195 | – | – | – | O=C(O)CCCCCc1cnccc1CCNS(=O)(=O)c1ccc(Cl)cc1
100 | 670 | 36 | – | – | – | O=C(O)CCCCCc1cnccc1CCCNS(=O)(=O)c1ccc(Cl)cc1
80 | 440 | 94 | – | – | – | O=C(O)CCCCCCc1cnccc1CCNS(=O)(=O)c1ccc(Cl)cc1

Second part, the compound before the results:

SMILES | IC50 (Thromboxane-A synthase [1]) [nM] | IC50 (Homo sapiens [2]) [nM] | IC50 (Homo sapiens [3]) [nM] | IC50 (Thromboxane-A synthase [4]) | IC50 (Homo sapiens [5]) | IC50 (Homo sapiens [6])
O=C(O)CCCCCc1cnccc1CNS(=O)(=O)c1ccc(Cl)cc1 | 66 | 1080 | 220 | – | – | –
O=C(O)CCCCCCc1cnccc1CCCNS(=O)(=O)c1ccc(Cl)cc1 | 15 | 7970 | 1440 | – | – | –
O=C(O)CCCCCCc1cnccc1NS(=O)(=O)c1ccc(Cl)cc1 | – | – | – | Not Active | Not Active | Not Active
